A short description of test [1]: Inhibitory constant against cGPK (PKG). More on the design: species or system Sus scrofa.
Test [2] concerns the target Myosin light chain kinase, smooth muscle (Gallus gallus, UniProt P11799). The test is described as follows: Inhibitory constant against MLCK.
Test [3] has as its target Casein kinase II (Homo sapiens, UniProt P19784+P67870+P68400). Nature of the test: Inhibitory constant against CK2. The test is classed as protein-complex assay, Oryctolagus cuniculus.
A short description of test [4]: Inhibitory constant against CK1. Details: species or system Rattus norvegicus.
In test [5] the target is Protein kinase C (PKC). The test is described as follows: Inhibitory constant against PKC. The test is classed as protein assay, Oryctolagus cuniculus.
Test [6] has as its target cAMP-dependent protein kinase alpha-catalytic subunit (Oryctolagus cuniculus, UniProt Q95J97). Nature of the test: Inhibitory constant against cAPK (PKA).

The source of these data is ChEMBL document CHEMBL1150971, “Crystal structures of catalytic subunit of cAMP-dependent protein kinase in complex with isoquinolinesulfonyl protein kinase inhibitors H7, H8, and H89. Structural implications for selectivity” (J Biol Chem, 1996).

The structures appear in SMILES notation.

Chain of Myosin light chain kinase, smooth muscle (P11799 whole entry): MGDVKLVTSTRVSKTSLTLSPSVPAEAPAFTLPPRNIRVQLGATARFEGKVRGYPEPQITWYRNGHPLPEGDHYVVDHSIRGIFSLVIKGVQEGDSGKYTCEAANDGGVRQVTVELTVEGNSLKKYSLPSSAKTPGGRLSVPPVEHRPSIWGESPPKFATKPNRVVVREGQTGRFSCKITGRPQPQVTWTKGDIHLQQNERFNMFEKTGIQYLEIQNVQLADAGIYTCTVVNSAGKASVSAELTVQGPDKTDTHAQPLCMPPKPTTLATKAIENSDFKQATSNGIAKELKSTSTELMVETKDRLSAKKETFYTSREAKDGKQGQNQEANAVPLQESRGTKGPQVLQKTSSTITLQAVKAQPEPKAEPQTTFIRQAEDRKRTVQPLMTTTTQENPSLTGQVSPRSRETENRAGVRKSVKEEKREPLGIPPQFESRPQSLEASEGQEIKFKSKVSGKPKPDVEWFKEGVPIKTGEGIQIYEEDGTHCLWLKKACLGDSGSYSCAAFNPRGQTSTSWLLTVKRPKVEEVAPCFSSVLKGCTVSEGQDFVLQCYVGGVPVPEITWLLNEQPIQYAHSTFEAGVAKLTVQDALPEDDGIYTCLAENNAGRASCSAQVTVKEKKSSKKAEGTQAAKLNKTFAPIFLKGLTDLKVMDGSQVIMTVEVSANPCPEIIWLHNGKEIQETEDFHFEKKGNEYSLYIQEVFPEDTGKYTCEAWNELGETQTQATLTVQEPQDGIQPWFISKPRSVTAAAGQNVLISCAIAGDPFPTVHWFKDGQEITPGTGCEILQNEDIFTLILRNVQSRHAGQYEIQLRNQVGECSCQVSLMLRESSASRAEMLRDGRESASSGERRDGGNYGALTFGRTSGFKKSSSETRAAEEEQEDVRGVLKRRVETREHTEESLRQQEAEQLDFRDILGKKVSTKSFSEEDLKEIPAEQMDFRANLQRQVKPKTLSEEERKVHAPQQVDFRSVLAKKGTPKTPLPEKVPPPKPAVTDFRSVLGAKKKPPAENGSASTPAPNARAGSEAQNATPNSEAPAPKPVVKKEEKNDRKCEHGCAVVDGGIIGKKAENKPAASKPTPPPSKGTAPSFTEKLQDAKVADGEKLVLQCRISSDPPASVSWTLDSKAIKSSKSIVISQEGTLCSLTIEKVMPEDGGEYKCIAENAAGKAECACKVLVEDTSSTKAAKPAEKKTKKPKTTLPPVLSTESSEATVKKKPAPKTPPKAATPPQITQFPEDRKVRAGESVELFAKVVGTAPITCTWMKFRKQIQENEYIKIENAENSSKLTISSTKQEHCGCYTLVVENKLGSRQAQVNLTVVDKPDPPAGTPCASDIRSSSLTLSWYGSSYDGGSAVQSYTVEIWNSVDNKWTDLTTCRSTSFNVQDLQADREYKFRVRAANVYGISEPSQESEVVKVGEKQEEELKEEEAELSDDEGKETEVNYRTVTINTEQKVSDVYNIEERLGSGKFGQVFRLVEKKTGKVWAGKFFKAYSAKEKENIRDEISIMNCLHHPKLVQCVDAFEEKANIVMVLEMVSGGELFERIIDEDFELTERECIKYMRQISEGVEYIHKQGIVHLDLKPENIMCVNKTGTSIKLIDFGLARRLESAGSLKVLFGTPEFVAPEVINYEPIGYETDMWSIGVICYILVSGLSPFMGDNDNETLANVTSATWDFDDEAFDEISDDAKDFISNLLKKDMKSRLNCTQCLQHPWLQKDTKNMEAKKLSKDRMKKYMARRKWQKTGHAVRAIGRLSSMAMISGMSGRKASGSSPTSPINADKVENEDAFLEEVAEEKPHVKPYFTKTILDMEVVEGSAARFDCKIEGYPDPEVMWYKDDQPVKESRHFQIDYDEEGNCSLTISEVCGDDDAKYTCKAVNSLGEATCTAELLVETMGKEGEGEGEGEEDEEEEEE
Chain of Casein kinase II (P67870 whole entry): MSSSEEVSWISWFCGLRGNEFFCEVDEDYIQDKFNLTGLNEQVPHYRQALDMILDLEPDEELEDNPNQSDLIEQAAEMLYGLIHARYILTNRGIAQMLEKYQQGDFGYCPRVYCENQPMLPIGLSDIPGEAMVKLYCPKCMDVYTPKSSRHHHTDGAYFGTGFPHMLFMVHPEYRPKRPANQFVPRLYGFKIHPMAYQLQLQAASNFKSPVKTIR
Chain of Casein kinase II (P68400 whole entry): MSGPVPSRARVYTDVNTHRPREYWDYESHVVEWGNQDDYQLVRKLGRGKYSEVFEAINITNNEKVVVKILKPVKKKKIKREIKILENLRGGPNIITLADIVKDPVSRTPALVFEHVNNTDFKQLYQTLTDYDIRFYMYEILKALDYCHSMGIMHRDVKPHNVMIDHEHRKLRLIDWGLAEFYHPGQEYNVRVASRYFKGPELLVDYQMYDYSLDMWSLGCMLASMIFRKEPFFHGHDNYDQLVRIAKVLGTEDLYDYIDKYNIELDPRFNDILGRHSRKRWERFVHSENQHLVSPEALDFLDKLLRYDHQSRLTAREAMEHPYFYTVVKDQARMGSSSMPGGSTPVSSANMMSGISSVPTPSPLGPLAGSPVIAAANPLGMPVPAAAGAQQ
Chain of Casein kinase II (P19784 whole entry): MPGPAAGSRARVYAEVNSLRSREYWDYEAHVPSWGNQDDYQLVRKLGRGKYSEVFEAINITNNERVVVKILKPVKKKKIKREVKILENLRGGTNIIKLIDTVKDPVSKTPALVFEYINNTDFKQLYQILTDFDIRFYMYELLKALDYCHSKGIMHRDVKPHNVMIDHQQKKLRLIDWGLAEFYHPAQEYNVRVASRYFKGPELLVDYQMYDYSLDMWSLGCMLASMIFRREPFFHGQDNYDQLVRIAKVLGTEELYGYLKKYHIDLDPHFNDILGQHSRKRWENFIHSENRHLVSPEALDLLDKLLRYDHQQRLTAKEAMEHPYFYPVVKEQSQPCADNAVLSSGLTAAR

For `C[C@H]1CNCCN1S(=O)(=O)c1cccc2cnccc12`, the Ki in test [1] stood at 5.8 µM; in test [2], 97 µM; in test [3], 780 µM; in test [4], 100 µM; in test [5], 6 µM.

As to `CNCCNS(=O)(=O)c1cccc2cnccc12`, the Ki in test [6] was 1.2 µM; in test [1], 0.48 µM; in test [2] it was 68 µM; in test [3], 950 µM; in test [4], 133 µM; in test [5] it was 15 µM.

Consider `O=S(=O)(NCCNC/C=C/c1ccc(Br)cc1)c1cccc2cnccc12`, for which, in test [2], the affinity, expressed as Ki, was 28.3 µM.
